Results taken from patent publication US20220288201A1, “COMBINATION THERAPY FOR TREATING RAS-MUTANT CANCERS” (H. Lee Moffitt Cancer and Research Institute, Inc., priority 2019, published 2022).
pIC50: −log10 of the molar value. Read-outs that look alike come from different tables or passages of the source.

Assays:
[1] = system: 501mel; assay: Colony growth assay, 501mel; assay type: cell-based; conditions: Homo sapiens, RAS G12D
Text: (§1) FIG. 1. […] All other lines are BRAF wild-type and have activating mutations in RAS.
(§2) While oncogene-induced senescence due to overexpressed mutant RAS is an important tumor suppression mechanism, multiple variants of senescence exist (Ito, Y., et al. Trends Cell Biol 27:820-832 (2017); Lasry, A. & Ben-Neriah, Y. Trends Immunol 36:217-28 (2015); Ewald, J. A., et al. J Natl Cancer Inst 102:1536-46 (2010); Mooi, W. J. & Peeper, D.S. N Engl J Med. 355:1037-46 (2006)). With this in mind, experiments were conducted to determine whether paradoxical ERK activation, as driven by BRAFi exposure in the context of RAS-mutant cancers, could cause elevation of ERK pathway signaling to the point of causing senescence-like growth arrest akin to oncogene-induced senescence. To determine the effects of BRAFi treatment on RAS-mutant melanomas, a panel of four BRAFi were screened against eight RAS-mutant melanoma cell lines. the FDA-approved BRAFi vemurafenib, dabrafenib, encorafenib (Dummer, R., et al. J Clin Oncol 31(2013)), and the ‘paradox-breaker PLX8394, which was designed to elicit no paradoxical ERK activation (Zhang, C., et al. Nature 526:583-6 (2015)) were tested.

[2] = system: GAK; assay: Colony growth assay, GAK; assay type: cell-based; conditions: Homo sapiens
Text: as §1, §2

[3] = system: WM1366; assay: Colony growth assay, WM1366; assay type: cell-based; conditions: Homo sapiens, WM1366, RAS Q61L
Text: as §1, §2

[4] = cited from earlier work; for induction of cutaneous squamous cell carcinoma (cuSCC), patients: treated patients, averaged across multiple studies
[5] = system: Sk-mel-2; assay: Colony growth assay, Sk-mel-2; assay type: cell-based; conditions: Homo sapiens, Sk-mel-2, RAS Q61R
Text: as §1, §2

[6] = system: Sk-mel-119; assay: Colony growth assay, Sk-mel-119; assay type: cell-based; conditions: Homo sapiens, Sk-mel-119, RAS Q61R
Text: as §1, §2

[7] = system: A375; assay: Colony growth assay, A375 (BRAF mutant positive control); assay type: cell-based; conditions: Homo sapiens, A-375
Text: as §1, §2

[8] = system: ICP 298; assay: Colony growth assay, ICP 298; assay type: cell-based; conditions: Homo sapiens, ICP 298, RAS Q61L
Text: as §1, §2

[9] = system: CP66; assay: Colony growth assay, CP66; assay type: cell-based; conditions: Homo sapiens, CP66, RAS Q61K
Text: as §1, §2

[10] = system: MelJUSO; assay: Colony growth assay, MelJUSO; assay type: cell-based; conditions: Homo sapiens, MEL-JUSO, RAS Q61L (HRASG13D)
Text: as §1, §2

[11] = system: RAS-mutant melanoma cell lines; assay: BRAFi screen against panel of RAS-mutant melanoma cell lines; assay type: cell-based, human; conditions: for pIC50: Homo sapiens, four 'BRAFi sensitive' RAS-mutant cell lines, read-out: IC50, growth inhibition
Text: as §1, §2

[12] = in vivo; cited from earlier work
[13] = system: IPC 298 and 501mel cell line xenografts; assay: IPC 298 and 501mel cell line xenografts in mice; assay type: in vivo, mouse; conditions: 3.5 mg/kg daily; NOD/SCID gamma or athymic nude mice
Procedure: FIG. 4. […] (A) IPC 298 cell line xenografts were established in NOD/SCID gamma mice by co-injecting 1 million IPC 298 cells subcutaneously. Daily treatment with vehicle (n=20) or 3.5 mg/kg dabrafenib (n=20) was initiated at ‘Day 0,’ or 7 days post injection. Tumor volume was tracked by caliper measurement, calculated using V=½lw2. Student's t-test compares differences in tumor volumes at sacrifice in both conditions versus vehicle control (B) Representative image of mice from (A) at experimental endpoint. (C) Phospho-ERK western-blotting of tumor lysates from a short-term pharmacodynamic experiment from IPC 298 lysates harvested from mice treated orally with vehicle or 3.5 mg/kg dabrafenib for 5 days. (D) 501mel cell line xenografts were established in athymic nude mice by co-injecting 4 million 501mel cells mixed with 1 million normal dermal fibroblasts (NDF) per site. Mice were treated with vehicle (n=11) or 3.5 mg/kg dabrafenib (n=10), 12 days post injection. As engraftment with 501mel/NDF is inefficient, only tumors with diameters >3 mm at treatment initiation are detailed here. Student's t-test compares differences in tumor volumes at sacrifice in both conditions versus vehicle control. (E) Representative image of mice from (D) at experimental endpoint. […] Quantitative data represent at least three independent experiments. […]

[14] = system: NRASQ61R-mutant melanoma cells (C57BL/6); assay: Transplanted NRASQ61R-mutant melanoma model in C57BL/6 mice; assay type: in vivo, mouse; conditions: dabrafenib 3.5 mg/kg/day, RMP1-14 thrice weekly, start day 7
Procedure: FIG. 11. Transplanted NRASQ61R-mutant melanoma cells (C57BL/6) regress when dabrafenib-induced PEASA is combined with anti-PD1 immunotherapy. 1 million melanoma cells were injected in both flanks of C57BL/6 mice and therapy started at 7 days. […] mice per condition across 2 independent trials; mean tumor volume +/−SEM.
Because senescence is associated with a specific inflammatory gene expression signature, RNAseq was used to characterize responsive NRAS-mutant cell lines (IPC298, SK-MEL-119) following BRAFi exposure.

[15] = system: IL-6 secretion, 501 MEL melanoma cell lines; assay: IL-6 secreted in the media of 501 MEL cells; assay type: cell-based, human; conditions: acute 24 hours or chronic 7 days, vs control-treated
Text: Substantial increases in the secretion of this canonical senescence-associated cytokine are reliably measured in all settings, up to 3-fold in magnitude, showing essential features of the ERK-hyperactivation mediated senescence response.

[16] = A375, RAS WT (BRAFV600E), colony growth, read-out: IC50
[17] = GAK, RAS Q61K, colony growth, read-out: IC50

| pIC50 [7, 16] | Structure (SMILES) | pIC50 [1] | pIC50 [2] | pIC50 [3] | cuSCC harboring activating RAS mutations ([4]; cuSCC from treated patients, 10-20% in sporadic cuSCC) | induction of cutaneous squamous cell carcinoma (cuSCC), patients [4] [%] | pIC50 [5] | pIC50 [6] | pIC50 [8] | pIC50 [9] | pIC50 [10] | pIC50 [2, 17] | activity against RAS mutant cell lines ([11]; RAS mutant cell lines) | pIC50 [11] | plasma elimination half-life [12] | pIC50 [7] | tumor growth in vivo [13] | tumor response (tumor volume) [14] | increase in secretion of IL-6 [15] |
| --- | --- | --- | --- | --- | --- | --- | --- | --- | --- | --- | --- | --- | --- | --- | --- | --- | --- | --- | --- |
| 6.74 | O=C(c1c(F)ccc(NS(=O)(=O)N2CC[C@@H](F)C2)c1F)c1c[nH]c2ncc(-c3cnc(C4CC4)nc3)cc12 [PLX8394] | < 6.00 | – | < 6.00 | – | – | < 6.00 | < 6.00 | < 6.00 | < 6.00 | < 6.00 | < 6.00 | never showed activity | – | – | – | – | – | – |
| 9.15 | COC(=O)N[C@@H](C)CNc1nccc(-c2cn(C(C)C)nc2-c2cc(Cl)cc(NS(C)(=O)=O)c2F)n1 [Encorafenib] | 8.12 | – | < 5.70 | – | – | 6.26 | 9.31 | 9.05 | 6.28 | 7.59 | 5.80 | – | > 7.00 | approximately 6 hours | – | – | – | – |
| – | CC(C)(C)c1nc(-c2cccc(NS(=O)(=O)c3c(F)cccc3F)c2F)c(-c2ccnc(N)n2)s1 [Dabrafenib] | 7.68 | – | < 5.30 | – | 6 | 6.62 | 8.74 | 7.51 | 6.00 | 7.00 | 6.15 | – | > 7.00 | – | 8.60 | prevents RAS-mutant tumor growth | partial responses, but progressive disease | up to 3 fold |

| Structure (SMILES) | pIC50 [7, 16] | pIC50 [1] | pIC50 [2] | pIC50 [3] | cuSCC harboring activating RAS mutations ([4]; cuSCC from treated patients, 10-20% in sporadic cuSCC) | induction of cutaneous squamous cell carcinoma (cuSCC), patients [4] [%] | pIC50 [5] | pIC50 [6] | pIC50 [8] | pIC50 [9] | pIC50 [10] | pIC50 [2, 17] | activity against RAS mutant cell lines ([11]; RAS mutant cell lines) | pIC50 [11] | plasma elimination half-life [12] | pIC50 [7] | tumor growth in vivo [13] | tumor response (tumor volume) [14] | increase in secretion of IL-6 [15] |
| --- | --- | --- | --- | --- | --- | --- | --- | --- | --- | --- | --- | --- | --- | --- | --- | --- | --- | --- | --- |
| CCCS(=O)(=O)Nc1ccc(F)c(C(=O)c2c[nH]c3ncc(-c4ccc(Cl)cc4)cc23)c1F [Vemurafenib] | 7.17 | 5.52 | 5.28 | < 5.18 | Approximately 60% | 22 | 5.60 | 6.27 | 6.42 | < 5.18 | < 5.18 | – | – | – | – | – | – | – | – |
